Paper PMC10455244, “Alpha-Mangostin: A Potent Inhibitor of TRPV3 and Pro-Inflammatory Cytokine Secretion in Keratinocytes” (International Journal of Molecular Sciences, 2023)

Key:
TRPV3 (G573S) = molecular target: T1, TRPV3 (G573S) (Homo sapiens, UniProt Q8NET8, G573S); assay: Whole-cell patch-clamp, spontaneous current of TRPV3 G573S mutant in HEK 293T cells; format: cell-based; settings: −100 mV, read-out: IC50, inhibition of spontaneous current of TRPV3 G573S mutant
T1 construct: host or cells: HEK 293T (transient transfection, pEGFP-N1 co-transfected as a marker)
T1 sequence (Q8NET8 1-790 G573S): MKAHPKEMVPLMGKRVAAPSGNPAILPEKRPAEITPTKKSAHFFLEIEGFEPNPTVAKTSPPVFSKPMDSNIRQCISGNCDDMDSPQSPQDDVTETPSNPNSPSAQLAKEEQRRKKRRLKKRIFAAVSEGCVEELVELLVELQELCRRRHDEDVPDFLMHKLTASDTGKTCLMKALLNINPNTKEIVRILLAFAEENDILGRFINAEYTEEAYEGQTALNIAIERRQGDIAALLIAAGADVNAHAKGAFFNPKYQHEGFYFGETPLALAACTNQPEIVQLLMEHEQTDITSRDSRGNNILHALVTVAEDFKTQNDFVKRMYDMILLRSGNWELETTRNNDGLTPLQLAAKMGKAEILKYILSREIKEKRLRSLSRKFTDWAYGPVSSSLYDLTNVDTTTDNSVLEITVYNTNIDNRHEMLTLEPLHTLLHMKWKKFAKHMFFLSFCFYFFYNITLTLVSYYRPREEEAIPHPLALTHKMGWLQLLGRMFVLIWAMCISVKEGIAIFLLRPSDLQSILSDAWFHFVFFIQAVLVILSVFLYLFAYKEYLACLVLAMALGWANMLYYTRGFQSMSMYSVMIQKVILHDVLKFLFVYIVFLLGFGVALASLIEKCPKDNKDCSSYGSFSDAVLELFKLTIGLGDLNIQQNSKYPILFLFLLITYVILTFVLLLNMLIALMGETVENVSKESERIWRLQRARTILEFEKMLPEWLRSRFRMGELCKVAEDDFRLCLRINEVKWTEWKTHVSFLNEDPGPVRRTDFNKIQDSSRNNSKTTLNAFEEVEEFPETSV
Experimental: For electrophysiology recording and calcium measurement, 10 µM 74a (a TRPV3 inhibitor) was added about 6 h after transfection to inhibit channel activities and prevent cell death. First, the electrophysiology activities of the mutations were recorded using a whole-cell patch-clamp. Our data presented spontaneous TRPV3 currents when −100 mV to 100 mV ramp pulses were applied, which dramatically declined with the addition of 1 µM alpha-mangostin (Figure 4A).
Figure 4 Alpha-mangostin inhibited the activity of hyperactive TRPV3 mutant channels and rescued mutation-induced cell death. (A) Alpha-mangostin inhibited the channel current in representative TRPV3 (G573S)- and TRPV3 (G573C)-expressing HEK 293T cells. […] Currents were normalized to the response at −100 mV before adding alpha-mangostin. (C) Alpha-mangostin inhibited TRPV3-mediated intracellular calcium increase in TRPV3 (G573S)-expressing HEK 293T cells. […] The bar graph on the right summarizes the change in the intracellular calcium rise inhibited by alpha-mangostin. […]
(§1) In the whole-cell configuration, voltage ramps from −100 to +100 mV over 1 s were applied every 20 s and the holding potential was set at 0 mV. Sampling at 10 kHz and low-pass filtering at 5 kHz (w-c) were applied for all recorded currents. Recorded data were analyzed using Clampfit ver. […]

TRPV4 = molecular target: T2, TRPV4 (Homo sapiens, UniProt Q9HBA0); assay: Whole-cell patch-clamp, GSK101-activated TRPV4 current in transfected HEK 293T cells; format: cell-based
T2 construct: host or cells: HEK 293T (transient transfection)
Experimental: Next, we examined the impact of alpha-mangostin on other TRP channels. TRPV4- and TRPA1 trasfected HEK 293T were activated using 300 nM GSK-1016790A (GSK101) and 100 µM allyl isothiocyanate (AITC), respectively. […] The dose–response curves were obtained by applying various concentrations of alpha-mangostin (Figure 2C).
Figure 2 Alpha-mangostin (α-MG) inhibited the TRPV3 current more effectively than other TRP channels. (A) Representative I–V curves from whole-cell recordings illustrate the inhibitory effect of 0.3 µM alpha-mangostin on TRPV4 and TRPA1 channels (GSK101: GSK-1016790A, a TRPV4 agonist; RR: ruthenium red, a TRP inhibitor; AITC: allyl isothiocyanate, a TRPA1 agonist; A967: A-967079, a TRPA1 inhibitor). Currents were elicited with ramp pulses from −100 to +100 mV over 1 s, which were repetitively applied every 20 s; the holding potential was set at 0 mV. (B) Summary of the inhibition percentage after 0.3 µM alpha-mangostin treatment at −100 mV. […]
as §1

T2 sequence (Q9HBA0 whole entry, species assumed): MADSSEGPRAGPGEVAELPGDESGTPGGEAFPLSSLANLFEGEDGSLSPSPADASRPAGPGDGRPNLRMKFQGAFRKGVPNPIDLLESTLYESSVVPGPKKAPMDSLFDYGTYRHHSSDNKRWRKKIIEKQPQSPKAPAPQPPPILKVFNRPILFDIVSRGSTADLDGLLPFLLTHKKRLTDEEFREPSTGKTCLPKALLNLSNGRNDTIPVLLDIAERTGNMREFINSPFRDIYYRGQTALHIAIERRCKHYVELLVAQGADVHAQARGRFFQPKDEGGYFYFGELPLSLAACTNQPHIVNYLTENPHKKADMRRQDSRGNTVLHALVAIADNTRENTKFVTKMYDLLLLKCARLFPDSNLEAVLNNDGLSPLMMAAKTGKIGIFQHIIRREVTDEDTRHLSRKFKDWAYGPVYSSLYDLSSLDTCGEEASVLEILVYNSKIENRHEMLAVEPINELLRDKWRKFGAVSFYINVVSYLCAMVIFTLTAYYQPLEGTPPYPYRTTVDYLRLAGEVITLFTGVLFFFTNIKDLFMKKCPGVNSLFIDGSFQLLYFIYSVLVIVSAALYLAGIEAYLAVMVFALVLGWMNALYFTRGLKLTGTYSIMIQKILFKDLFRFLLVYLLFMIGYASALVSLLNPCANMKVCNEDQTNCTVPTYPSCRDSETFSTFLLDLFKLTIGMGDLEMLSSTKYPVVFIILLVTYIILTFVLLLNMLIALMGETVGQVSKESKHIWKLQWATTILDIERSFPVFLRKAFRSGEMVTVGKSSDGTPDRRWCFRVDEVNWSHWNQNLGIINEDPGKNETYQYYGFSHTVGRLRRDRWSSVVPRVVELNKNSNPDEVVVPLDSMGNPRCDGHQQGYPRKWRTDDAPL

COc1c(O)cc2oc3cc(O)c(CC=C(C)C)c(O)c3c(=O)c2c1CC=C(C)C [Alpha-mangostin]
IC50 (TRPV3 (G573S)): 2040 ± 640 nM | inhibition at 0.3 µM (TRPV4; HEK-293T, 0.3 µM, 300 nM GSK101, −100 mV, read-out: Inhibition percentage of TRPV4 current): 16.1% | IC50 (TRPV4; transfected HEK 293T, 300 nM GSK101, read-out: IC50, inhibition of TRPV4 current): 8.47 ± 1.72 µM
